Experimental data: US8343951B2, “Volatile sulfide production inhibitor and method for inhibiting the production of volatile sulfide using the inhibitor” (Kabushiki Kaisha Hayashibara Seibutsu Kagaku Kenkyujo, priority 2006, dated 2013)

What was measured:
[1] = Hydrogen sulfide production from heated mackerel meat homogenate (headspace detecting tube); settings: for Produced Volatile sulfide: hydrogen sulfide in headspace; for Inhibiting rate of volatile sulfide production: hydrogen sulfide, relative to control
Procedure: AA-2G (reagent grade, commercialized by Hayashibara Biochemical Laboratories, Inc.) was dissolved in distilled water to give a solution of a concentration of 10%. A certain amount of the solution and 5 ml of 500 mM phosphate buffer (pH 7.0) were put into measuring flask and filled up to 50 ml to give the test solutions containing AA-2G at the twofold concentration described in Table 1. Also the test solutions containing ascorbic acid were prepared in the same way except for using ascorbic acid (guaranteed regent) in place of AA-2G. Five ml of 500 mM phosphate buffer (pH 7.0) was filled up to 50 ml with distilled water to give control solution. Edible part of commercial mackerel fillet without bone and skin was chopped with trio blender and homogeneously stirred to make minced mackerel. Forty-five grams of the minced mackerel was put into a beaker and added with 45 g of the test solution or control solution to give the samples at the concentration of AA-2G or ascorbic acid described in Table 1. The samples were treated with homogenizer (produced by IKA Works Inc.) at ice-chilled temperature to give the homogenates as the test samples. PH of the homogenates is from 6.21 to 6.38. Ten grams of the above samples were put into 20 ml-vials and sealed with butyl rubber cap and aluminum seal. They were heated in boiled water bath for 15 minutes and cooled in running cool water. After cooled, they were heated on heating block (80° C.) for 10 minutes and the solidified samples were broken with vortex mixer. The amounts of hydrogen sulfide in the headspace gas were measured by hydrogen sulfide detecting tube ([…] No. 4LT, produced by GL Sciences Inc.). Also the inhibiting rate (%) of hydrogen sulfide production were shown in Table 1, which were obtained by subtracting the percentage amounts of hydrogen sulfide produced from 1 g of mackerel meats added with test solutions relative to the amount of hydrogen sulfide produced from 1 g of mackerel meat added with control solution from 100 to obtain.

[2] = Dimethyl-sulfide and dimethyl-disulfide production from heated milk (headspace gas chromatography); settings: for Produced Dimethyl-disulfide / Produced Dimethyl-sulfide: milk heated 130° C. one minute; for production of volatile sulfides (dimethyl-sulfide and dimethyl-disulfide) from the test solutions / Produced Volatile sulfide: milk; for Inhibiting rate of volatile sulfide production: relative to control milk; for Produced Volatile sulfide: sum of dimethyl-sulfide and dimethyl-disulfide
Procedure: AA-2G (reagent grade, commercialized by Hayashibara Biochemical Laboratories, Inc.) was added in commercial milk to give the concentrations described in Table 2 to make the test solutions. Test solutions containing ascorbic acid were prepared in the same way except for using ascorbic acid (guaranteed regent) in place of AA-2G. The commercial milk was used plain as control. Sensory test of the solutions was performed by 11 panelists to evaluate the taste of each test solution added with AA-2G or ascorbic acid as being different (D) from control or as being the same (S) as control. As a result, eight or more of the 11 panelists gave a same evaluation to each test solution.
One ml of the above samples were put into 20 ml-vials and sealed with butyl rubber cap and aluminum seal. After heated at 130° C. for one minute, the amounts of dimethyl-sulfide and dimethyl-disulfide in the headspace were measured by gas chromatography in conventional way. The sums of them were shown as the amounts of volatile sulfide in Table 2. Also the inhibiting rates (%) of volatile sulfide production were shown in Table 2, which were obtained by subtracting the percentage amounts of volatile sulfide produced from ml of the test solutions relative to the amount of volatile sulfide produced from 1 ml of control (milk) from 100 to obtain.

O=C1O[C@H]([C@@H](O)CO)C(O)=C1O[C@H]1O[C@H](CO)[C@@H](O)[C@H](O)[C@H]1O [AA-2G, α-D-glucopyronosyl-(1→2)-L-ascorbic acid]
hydrogen sulfide production from homogenate of mackerel meat ([1]; AA-2G concentration of 0.1%): enhanced
hydrogen sulfide production from homogenate of mackerel meat ([1]; concentration in a range from 0.0005 to 0.5%, versus control): inhibited
Produced Volatile sulfide ([1]; additive 0.0001% in sample): 44.5 μg/g-mackerel
Produced Volatile sulfide ([1]; additive 0.0005% in sample): 30.7 μg/g-mackerel
Produced Volatile sulfide ([1]; additive 0.001% in sample): 17.4 μg/g-mackerel
Produced Volatile sulfide ([1]; additive 0.005% in sample): 11.5 μg/g-mackerel
Produced Volatile sulfide ([1]; additive 0.01% in sample): 13.2 μg/g-mackerel
Produced Volatile sulfide ([1]; additive 0.025% in sample): 16.1 μg/g-mackerel
Produced Volatile sulfide ([1]; additive 0.05% in sample): 19.9 μg/g-mackerel
Produced Volatile sulfide ([1]; additive 0.1% in sample): 25.9 μg/g-mackerel
Produced Volatile sulfide ([1]; additive 0.5% in sample): 38.2 μg/g-mackerel
Produced Volatile sulfide ([1]; additive 1.0% in sample): 48.5 μg/g-mackerel
Inhibiting rate of volatile sulfide production ([1]; additive 0.0001% in sample): −3.0%
Inhibiting rate of volatile sulfide production ([1]; additive 0.0005% in sample): 28.9%
Inhibiting rate of volatile sulfide production ([1]; additive 0.001% in sample): 59.7%
Inhibiting rate of volatile sulfide production ([1]; additive 0.005% in sample): 73.4%
Inhibiting rate of volatile sulfide production ([1]; additive 0.01% in sample): 69.4%
Inhibiting rate of volatile sulfide production ([1]; additive 0.025% in sample): 62.7%
Inhibiting rate of volatile sulfide production ([1]; additive 0.05% in sample): 53.9%
Inhibiting rate of volatile sulfide production ([1]; additive 0.1% in sample): 40.0%
Inhibiting rate of volatile sulfide production ([1]; additive 0.5% in sample): 11.6%
Inhibiting rate of volatile sulfide production ([1]; additive 1.0% in sample): −12.3%
Produced Dimethyl-disulfide ([2]; additive 0.0001% in sample): 0.54 μg/ml-milk
Produced Dimethyl-sulfide ([2]; additive 0.0001% in sample): 1.30 μg/ml-milk
Produced Dimethyl-disulfide ([2]; additive 0.0005% in sample): 0.43 μg/ml-milk
Produced Dimethyl-sulfide ([2]; additive 0.0005% in sample): 1.12 μg/ml-milk
Produced Dimethyl-disulfide ([2]; additive 0.001% in sample): 0.37 μg/ml-milk
Produced Dimethyl-sulfide ([2]; additive 0.001% in sample): 0.75 μg/ml-milk
Produced Dimethyl-disulfide ([2]; additive 0.005% in sample): 0.14 μg/ml-milk
Produced Dimethyl-sulfide ([2]; additive 0.005% in sample): 0.23 μg/ml-milk
Produced Dimethyl-disulfide ([2]; additive 0.01% in sample): 0.14 μg/ml-milk
Produced Dimethyl-sulfide ([2]; additive 0.01% in sample): 0.11 μg/ml-milk
Produced Dimethyl-disulfide ([2]; additive 0.05% in sample): 0.07 μg/ml-milk
Produced Dimethyl-sulfide ([2]; additive 0.05% in sample): 0.07 μg/ml-milk
Produced Dimethyl-disulfide ([2]; additive 0.1% in sample): 0.07 μg/ml-milk
Produced Dimethyl-sulfide ([2]; additive 0.1% in sample): 0.06 μg/ml-milk
Produced Dimethyl-disulfide ([2]; additive 0.5% in sample): 0.08 μg/ml-milk
Produced Dimethyl-sulfide ([2]; additive 0.5% in sample): 0.10 μg/ml-milk
Produced Dimethyl-disulfide ([2]; additive 2.5% in sample): 0.19 μg/ml-milk
Produced Dimethyl-sulfide ([2]; additive 2.5% in sample): 0.28 μg/ml-milk
production of volatile sulfides (dimethyl-sulfide and dimethyl-disulfide) from the test solutions ([2]; concentration from 0.005 to 0.5%): strongly inhibited
production of volatile sulfides (dimethyl-sulfide and dimethyl-disulfide) from the test solutions ([2]; concentration of 0.0005% or more, compared to control): inhibited
Inhibiting rate of volatile sulfide production ([2]; additive 0.0001% in sample): 2.6%
Inhibiting rate of volatile sulfide production ([2]; additive 0.0005% in sample): 18.0%
Inhibiting rate of volatile sulfide production ([2]; additive 0.001% in sample): 40.7%
Inhibiting rate of volatile sulfide production ([2]; additive 0.005% in sample): 80.4%
Inhibiting rate of volatile sulfide production ([2]; additive 0.01% in sample): 86.8%
Inhibiting rate of volatile sulfide production ([2]; additive 0.05% in sample): 92.6%
Inhibiting rate of volatile sulfide production ([2]; additive 0.1% in sample): 93.1%
Inhibiting rate of volatile sulfide production ([2]; additive 0.5% in sample): 90.5%
Inhibiting rate of volatile sulfide production ([2]; additive 2.5% in sample): 75.1%
Produced Volatile sulfide ([2]; additive 0.0001% in sample): 1.94 µg/mL
Produced Volatile sulfide ([2]; additive 0.0005% in sample): 1.55 µg/mL
Produced Volatile sulfide ([2]; additive 0.001% in sample): 1.12 µg/mL
Produced Volatile sulfide ([2]; additive 0.005% in sample): 0.37 µg/mL
Produced Volatile sulfide ([2]; additive 0.01% in sample): 0.25 µg/mL
Produced Volatile sulfide ([2]; additive 0.05% in sample): 0.14 µg/mL
Produced Volatile sulfide ([2]; additive 0.1% in sample): 0.13 µg/mL
Produced Volatile sulfide ([2]; additive 0.5% in sample): 0.18 µg/mL
Produced Volatile sulfide ([2]; additive 2.5% in sample): 0.47 µg/mL
